Results reported in ChEMBL document CHEMBL3875150, “Biological evaluation of some new N-(2,6-dimethoxypyrimidinyl) thioureido benzenesulfonamide derivatives as potential antimicrobial and anticancer agents” (Eur J Med Chem, 2016).
Values after ≈ are worked out from the molar mass of the structure shown.

How the values were obtained:
[1] = test system: Candida albicans; experiment: Antifungal activity against Candida albicans RCMB 005036 assessed as diameter of inhibition zone at 1 mg/mL after 24 to 48 hrs by agar well diffusion method; format: functional; conditions: read-out: DIZ
[2] = test system: Aspergillus fumigatus; experiment: Antifungal activity against Aspergillus fumigatus RCMB 002568 assessed as diameter of inhibition zone at 1 mg/mL after 48 hrs by agar well diffusion method; format: functional; conditions: RCMB 002568, 48 h, read-out: DIZ
[3] = test system: Escherichia coli; experiment: Antibacterial activity against Escherichia coli RCMB 010052 assessed as diameter of inhibition zone at 1 mg/mL after 24 to 48 hrs by agar well diffusion method; format: functional; conditions: read-out: DIZ
[4] = (§1) Cytotoxicity against human MCF7 cells assessed as decrease in cell viability after 24 hrs by MTT assay; format: functional, cell-based; conditions: MCF7, 24 h
[5] = test system: MCF7; experiment: as §1; format: functional, cell-based
[6] = test system: Candida albicans; experiment: Antifungal activity against Candida albicans RCMB 005036 after 24 to 48 hrs by agar well diffusion method; format: functional
[7] = test system: Aspergillus fumigatus; experiment: Antifungal activity against Aspergillus fumigatus RCMB 002568 after 24 to 48 hrs by agar well diffusion method; format: functional
[8] = test system: Bacillus subtilis; experiment: Antibacterial activity against Bacillus subtilis RCMB 010067 after 24 to 48 hrs by agar well diffusion method; format: functional
[9] = test system: Escherichia coli; experiment: Antibacterial activity against Escherichia coli RCMB 010052 after 24 to 48 hrs by agar well diffusion method; format: functional
[10] = test system: Streptococcus pneumoniae; experiment: Antibacterial activity against Streptococcus pneumoniae RCMB 010010 assessed as diameter of inhibition zone at 1 mg/mL after 24 to 48 hrs by agar well diffusion method; format: functional; conditions: read-out: DIZ
[11] = test system: Pseudomonas aeruginosa; experiment: Antibacterial activity against Pseudomonas aeruginosa RCMB 010043 after 24 to 48 hrs by agar well diffusion method; format: functional
[12] = test system: Pseudomonas aeruginosa; experiment: Antibacterial activity against Pseudomonas aeruginosa RCMB 010043 assessed as diameter of inhibition zone at 1 mg/mL after 24 to 48 hrs by agar well diffusion method; format: functional; conditions: read-out: DIZ
[13] = test system: Streptococcus pneumoniae; experiment: Antibacterial activity against Streptococcus pneumoniae RCMB 010010 after 24 to 48 hrs by agar well diffusion method; format: functional
[14] = test system: Bacillus subtilis; experiment: Antibacterial activity against Bacillus subtilis RCMB 010067 assessed as diameter of inhibition zone at 1 mg/mL after 24 to 48 hrs by agar well diffusion method; format: functional; conditions: read-out: DIZ

Structure (SMILES)	zone of inhibition at 1000 µg/mL [1] [mm]	zone of inhibition at 1000 µg/mL [2] [mm]	zone of inhibition at 1000 µg/mL [3] [mm]	IC50 [4] [µg/mL]	Activity [5]	MIC [6] [µg/mL]	MIC [7] [µg/mL]	MIC [8] [µg/mL]	MIC [9] [µg/mL]	zone of inhibition at 1000 µg/mL [10] [mm]	MIC [11] [µg/mL]	zone of inhibition at 1000 µg/mL [12] [mm]	MIC [13] [µg/mL]	zone of inhibition at 1000 µg/mL [14] [mm]
COc1cc(NS(=O)(=O)c2ccc(NC(=S)Nc3ccc4c(c3)oc(=O)c3ccccc34)cc2)nc(OC)n1	13.1	14.2	7.8	40.3 (≈ 71.5 µM)	Dose-dependent effect	–	–	–	–	–	–	–	–	–
COc1cc(NS(=O)(=O)c2ccc(NC(=S)Nc3nnc(C)c(C)n3)cc2)nc(OC)n1	–	–	–	44.8 (≈ 94 µM)	Dose-dependent effect	–	–	–	–	–	–	–	–	–
C[C@@H]1[C@H](O)[C@@H](C)/C=C/C=C/C=C/C=C/C=C/C=C/C=C/[C@H](O[C@@H]2O[C@H](C)[C@@H](O)[C@H](N)[C@@H]2O)C[C@@H]2O[C@](O)(C[C@@H](O)C[C@@H](O)[C@H](O)CC[C@@H](O)C[C@@H](O)CC(=O)O[C@H]1C)C[C@H](O)[C@H]2C(=O)O [AMPHOTERICIN B]	25.4	23.7	–	–	–	3.9 (≈ 4.22 µM)	1.95 (≈ 2.11 µM)	–	–	–	–	–	–	–
COc1cc(NS(=O)(=O)c2ccc(NC(=S)Nc3nc4cc(C)c(C)cc4s3)cc2)nc(OC)n1	21.4	23.3	26.3	93.9 (≈ 177 µM)	Dose-dependent effect	3.9 (≈ 7.35 µM)	1.95 (≈ 3.67 µM)	0.98 (≈ 1.85 µM)	0.98 (≈ 1.85 µM)	22.7	250 (≈ 471 µM)	10.3	1.95 (≈ 3.67 µM)	25.3
CCSc1nnc(NC(=S)Nc2ccc(S(=O)(=O)Nc3cc(OC)nc(OC)n3)cc2)s1	12.5	14.3	–	119 (≈ 232 µM)	Dose-dependent effect	–	–	–	–	–	–	–	–	–
O=C(O)c1cn(C2CC2)c2cc(N3CCNCC3)c(F)cc2c1=O [CIPROFLOXACIN]	–	–	25.8	–	–	–	–	0.1 (≈ 0.302 µM)	–	22.4	–	21.3	0.98 (≈ 2.96 µM)	27.2
COc1cc(NS(=O)(=O)c2ccc(NC(=S)Nc3nccc4ccccc34)cc2)nc(OC)n1	–	–	–	> 200	Dose-dependent effect	–	–	–	–	–	–	–	–	–
COc1cc(NS(=O)(=O)c2ccc(NC(=S)Nc3c(C)n(C)n(-c4ccccc4)c3=O)cc2)nc(OC)n1	12.6	13.6	–	113 (≈ 203 µM)	Dose-dependent effect	–	–	–	–	–	–	–	–	–
COc1cc(NS(=O)(=O)c2ccc(NC(=S)Nc3ccncc3)cc2)nc(OC)n1	13.9	15.6	13.2	168 (≈ 376 µM)	Dose-dependent effect	125 (≈ 280 µM)	62.5 (≈ 140 µM)	62.5 (≈ 140 µM)	125 (≈ 280 µM)	15.3	> 1000	–	62.5 (≈ 140 µM)	15.9
O=c1[nH]cc(F)c(=O)[nH]1 [FLUOROURACIL]	–	–	–	4.8 (≈ 36.9 µM)	Dose-dependent effect	–	–	–	–	–	–	–	–	–
COc1cc(NS(=O)(=O)c2ccc(NC(=S)Nc3nc(C)cc(C)n3)cc2)nc(OC)n1	–	–	–	82.9 (≈ 174 µM)	Dose-dependent effect	–	–	–	–	–	–	–	–	–
CCn1c2ccccc2c2cc(NC(=S)Nc3ccc(S(=O)(=O)Nc4cc(OC)nc(OC)n4)cc3)ccc21	12.1	10.3	–	143 (≈ 254 µM)	Dose-dependent effect	–	–	–	–	–	–	–	–	–
COc1cc(NS(=O)(=O)c2ccc(NC(=S)Nc3nc4ccc([N+](=O)[O-])cc4s3)cc2)nc(OC)n1	10.8	11.7	13.3	9.43 (≈ 17.2 µM)	Dose-dependent effect	250 (≈ 457 µM)	250 (≈ 457 µM)	125 (≈ 228 µM)	125 (≈ 228 µM)	13.3	> 1000	–	125 (≈ 228 µM)	14.1
COc1cc(NS(=O)(=O)c2ccc(NC(=S)Nc3cccnc3)cc2)nc(OC)n1	–	–	–	170 (≈ 380 µM)	Dose-dependent effect	–	–	–	–	–	–	–	–	–
